Experimental data taken from the supplement of paper PMC8882468.

Assays:
Test in all cases: CTG-3D luminescence at 96 h relative to day-0 seeding control (ratio to day 0); higher = more growth / less cytotoxicity; PDxO 3D drug screen, 96 h, CTG-3D normalised to day-0 seeding control.
HCI-001 = system: HCI-001 (organoid from a triple-negative breast cancer xenograft)
HCI-002 = system: HCI-002 (organoid from a triple-negative breast cancer xenograft)
HCI-012 = system: HCI-012 (organoid from a breast cancer xenograft)
HCI-024 = system: HCI-024 (organoid from a breast cancer xenograft)

O=C(c1ccc(F)c(F)c1Nc1ccc(I)cc1F)N1CC(O)([C@@H]2CCCCN2)C1 [cobimetinib]
CTG-3D luminescence at 96 h
Details | 12.5 pM | 0.00025 µM | 0.005 µM | 0.1 µM | 1 µM | 10 µM | 100 µM | 625 fM
HCI-001, days in culture: 240 | 1.59 | 1.08 | 1.09 | 1.08 | 1.32 | 0.812 | 0.00168 | 1.41
HCI-001, days in culture: 260 | 2.44 | 1.15 | 1.46 | 1.28 | 1.58 | 1.5 | 0.00186 | 1.87
HCI-001, days in culture: 269 | 1.48 | 1.58 | 1.56 | 1.49 | 1.26 | 1.83 | -0.00203 | 1.53
HCI-001, days in culture: 327 | 1.36 | 1.44 | 1.72 | 1.75 | 1.43 | 1.04 | 0.00317 | 1.52
HCI-001, days in culture: 346 | 1.24 | 1.22 | 1.07 | 1.14 | 1.13 | 1.22 | -7.73e-05 | 1.11
HCI-001, days in culture: 364 | 1.35 | 1.27 | 1.3 | 0.986 | 0.9 | 0.905 | 0.000378 | 1.51
HCI-002, days in culture: 62 | 2.96 | 2.54 | 2.87 | 1.97 | 1.32 | 0.777 | -0.0104 | 3.02
HCI-002, days in culture: 82 | 3.18 | 3.07 | 2.39 | 1.88 | 1.72 | 0.519 | -0.0137 | 3.03
HCI-002, days in culture: 91 | 3.83 | 3.46 | 2.9 | 2.74 | 1.55 | 0.722 | -0.0112 | 3.97
HCI-002, days in culture: 191 | 2.68 | 2.52 | 2.54 | 1.88 | 1.67 | 0.799 | -0.00417 | 2.65
HCI-002, days in culture: 209 | 2.44 | 2.32 | 2.11 | 1.78 | 1.43 | 0.589 | -0.00565 | 2.4
HCI-002, days in culture: 227 | 5.23 | 5.25 | 4.79 | 4.53 | 2.78 | 1.04 | -0.0104 | 5.77
HCI-012, days in culture: 143 | 1.73 | 1.86 | 1.88 | 1.87 | 1.57 | 0.758 | -0.00459 | 1.71
HCI-012, days in culture: 162 | 2.44 | 2.1 | 1.91 | 2.85 | 1.59 | 1.45 | 0.00171 | 2.91
HCI-012, days in culture: 201 | 2.69 | 1.53 | 1.69 | 1.91 | 2.24 | 1.02 | -0.00449 | 1.35
HCI-024, days in culture: 105 | 1.71 | 1.74 | 1.38 | 1.36 | 0.803 | 0.316 | -0.00552 | 2.08
HCI-024, days in culture: 122 | 2.66 | 2.28 | 2.13 | 1.03 | 0.873 | 0.979 | -0.000547 | 3.01
HCI-024, days in culture: 163 | 1.51 | 2.19 | 1.89 | 2.26 | 1.17 | 0.872 | -0.0079 | 2.15

C[C@H](NC(=O)CCC(F)(F)F)C(=O)N[C@@H]1C(=O)N(CCO)c2ncccc2-c2ccccc21 [crenigacestat]
CTG-3D luminescence at 96 h
Details | 12.5 pM | 0.00025 µM | 0.005 µM | 0.1 µM | 1 µM | 10 µM | 100 µM | 625 fM
HCI-001, days in culture: 240 | 1.25 | 1.04 | 1.03 | 0.845 | 1.36 | 1.2 | 1.45 | 0.941
HCI-001, days in culture: 260 | 2.03 | 0.875 | 1.52 | 1.34 | 1.54 | 1.84 | 1.12 | 1.44
HCI-001, days in culture: 269 | 1.62 | 1.6 | 1.37 | 1.29 | 1.39 | 2.1 | 2 | 1.33
HCI-001, days in culture: 327 | 1.46 | 1.4 | 1.63 | 1.87 | 1.24 | 1.06 | 1.64 | 1.76
HCI-001, days in culture: 346 | 1.3 | 1.2 | 1.1 | 1.08 | 1.32 | 1.35 | 1.76 | 1.11
HCI-001, days in culture: 364 | 1.4 | 1.08 | 1.35 | 1 | 1.1 | 1.27 | 1.1 | 1.43
HCI-002, days in culture: 62 | 2.87 | 2.47 | 2.56 | 2.68 | 2.3 | 2.72 | 2.8 | 2.91
HCI-002, days in culture: 82 | 3.27 | 3.18 | 2.46 | 2.78 | 2.76 | 2.69 | 2.21 | 2.76
HCI-002, days in culture: 91 | 3.89 | 3.6 | 2.93 | 3.44 | 3.36 | 3.56 | 2.88 | 3.82
HCI-002, days in culture: 191 | 2.59 | 2.32 | 2.2 | 2.19 | 2.46 | 2.35 | 2.4 | 2.36
HCI-002, days in culture: 209 | 2.47 | 2.47 | 2.22 | 1.91 | 2.27 | 1.93 | 2.41 | 2.29
HCI-002, days in culture: 227 | 5.37 | 5.77 | 5.03 | 5.6 | 4.74 | 4.97 | 3.7 | 4.95
HCI-012, days in culture: 143 | 1.9 | 1.85 | 1.63 | 2.49 | 2.07 | 2.78 | 2.65 | 1.78
HCI-012, days in culture: 162 | 2.11 | 2.3 | 1.74 | 2.93 | 1.87 | 2.96 | 2.74 | 2.57
HCI-012, days in culture: 201 | 2.55 | 1.94 | 1.82 | 1.75 | 2.3 | 1.67 | 2.55 | 1.72
HCI-024, days in culture: 105 | 1.19 | 1.65 | 1.35 | 1.59 | 2.01 | 1.98 | 1.62 | 1.56
HCI-024, days in culture: 122 | 1.95 | 1.76 | 1.92 | 1.72 | 1.97 | 2.75 | 2 | 2.55
HCI-024, days in culture: 163 | 1.93 | 2.2 | 2.01 | 2.48 | 2.19 | 2.38 | 1.88 | 1.86

COc1cccc2c1C(=O)c1c(O)c3c(c(O)c1C2=O)C[C@@](O)(C(=O)CO)C[C@@H]3O[C@H]1C[C@H](N)[C@H](O)[C@H](C)O1 [doxorubicin]
CTG-3D luminescence at 96 h
Details | 12.5 pM | 0.00025 µM | 0.005 µM | 0.1 µM | 1 µM | 10 µM | 100 µM | 625 fM
HCI-001, days in culture: 240 | 1.83 | 0.976 | 0.995 | 1.06 | 0.795 | 0.102 | 0.0662 | 1.82
HCI-001, days in culture: 260 | 2.69 | 0.99 | 2.06 | 1.71 | 0.863 | 0.169 | 0.0518 | 1.54
HCI-001, days in culture: 269 | 1.42 | 1.69 | 1.45 | 1.69 | 0.478 | 0.0884 | 0.00519 | 1.42
HCI-001, days in culture: 327 | 1.28 | 1.49 | 1.57 | 1.78 | 1.18 | 0.146 | 0.284 | 1.5
HCI-001, days in culture: 346 | 1.4 | 1.22 | 1.02 | 1.01 | 0.949 | 0.141 | 0.182 | 1.14
HCI-001, days in culture: 364 | 1.33 | 1.06 | 1.3 | 0.946 | 0.616 | 0.116 | 0.143 | 1.49
HCI-002, days in culture: 62 | 2.87 | 2.62 | 2.59 | 1.61 | 0.668 | 0.0335 | 0.00573 | 2.88
HCI-002, days in culture: 82 | 3.24 | 2.83 | 2.22 | 2.02 | 0.999 | 0.0349 | 0.0154 | 3.02
HCI-002, days in culture: 91 | 4.09 | 3.38 | 3.24 | 2.3 | 1.03 | 0.0844 | 0.0322 | 3.96
HCI-002, days in culture: 191 | 2.74 | 2.53 | 2.51 | 1.69 | 1.02 | 0.0535 | 0.00895 | 2.52
HCI-002, days in culture: 209 | 2.54 | 2.37 | 2.28 | 1.51 | 0.836 | 0.0193 | 0.00843 | 2.44
HCI-002, days in culture: 227 | 4.92 | 5.5 | 4.24 | 3.32 | 1.62 | 0.0266 | -0.0178 | 5.72
HCI-012, days in culture: 143 | 1.78 | 1.93 | 1.8 | 0.35 | 0.0586 | -0.00257 | -0.0149 | 1.91
HCI-012, days in culture: 162 | 2.15 | 2.16 | 2.04 | 0.961 | 0.0655 | 0.00235 | -0.0139 | 3.15
HCI-012, days in culture: 201 | 2.84 | 1.58 | 1.7 | 0.408 | 0.0363 | 0.000335 | -0.0192 | 1.33
HCI-024, days in culture: 105 | 1.87 | 1.64 | 1.47 | 1.53 | 1.05 | 0.158 | 0.154 | 2.18
HCI-024, days in culture: 122 | 2.06 | 2.32 | 1.72 | 1.45 | 1.06 | 0.153 | 0.156 | 2.88
HCI-024, days in culture: 163 | 1.43 | 2.44 | 1.96 | 2.3 | 1.38 | 0.176 | 0.187 | 1.44
